Patent US20080051417A1, “Uses of selective cyclooxygenase-1 inhibitors” (priority 2006, published 2008)
Read-outs that look alike come from different tables or passages of the source.

Tests used:
[1] = system: lipoxin A4; assay: Myocardial lipoxin A4 levels (ELISA) in treated rats; assay type: in vivo, Sprague-Dawley rats; conditions: for effect on pioglitazone+atorvastatin effect on myocardial lipoxin A4: pioglitazone+atorvastatin pretreated rats
Procedure: (§1) Rats received the following treatment (4 rats in each group): 1) i.v. saline and oral water; 2) i.v. saline and oral aspirin 10 mg/kg; 3) i.v. saline and oral aspirin 50 mg/kg; 4) i.v. LPS and oral water; 5) i.v. LPS and oral aspirin 10 mg/kg; 6) i.v. LPS and oral aspirin 50 mg/kg; 7) i.v. LPS and oral aspirin 200 mg/kg; 8) oral pioglitazone (10 mg/kg/d) and atorvastatin (10 mg/kg/d); 9) oral pioglitazone+atorvastatin and aspirin 10 mg/kg; 10) oral pioglitazone+atorvastatin and aspirin 50 mg/kg; 11) oral pioglitazone+atorvastatin and aspirin 50 mg/kg and i.v. 1400 W, a specific iNOS inhibitor; or 12) oral pioglitazone+atorvastatin, oral water, and i.v. 1400 W, a specific iNOS inhibitor. LPS (10 mg/kg) was dissolved in 1 ml of saline and was administered intravenously 8 hours before harvesting the hearts. Aspirin was dissolved in water and administered by oral gavage 8 hours before harvesting the hearts. Atorvastatin and pioglitazone were administered by oral gavage once daily for 3 days; last dose was administered 16 hours before harvesting the hearts. 1400 W (1 mg/kg) was administered i.v. 15 minutes before harvesting the hearts. All hearts were analyzed for myocardial 15-epi-LPXA4, lipoxin A4, 6-keto-PGF1α (the stable metabolite of PGI2) and PGE2 levels.
(§2) The hearts were rapidly explanted, rinsed in cold PBS (pH 7.4), containing 0.16 mg/ml heparin to remove red blood cells and clots, frozen in liquid nitrogen and stored at −70° C. For 15-epi-LPXA4 and lipoxin A4 determination, myocardial samples from the anterior left ventricular wall were homogenized in ethanol (5 ml/g) and centrifuged at 10,000 g X15 min at 4° C. The supernatant was diluted with water and acidified to pH 3.5 with 1N HCl. The sample was loaded into C-18 Sep-Pak light column (Waters Corporation, Milford, Mass.) and washed with 1 ml of water followed by 1 ml of petroleum ether. The sample was eluted with 2 ml of methyl formate. The methyl formate was evaporated with N2 and the residue was dissolved in extraction buffer. The manufacturer instruction of the ELISA Kits was followed. For myocardial 6-keto-PGF1α and PGE2 levels myocardial samples were homogenized in RIPA lysis buffer with 10% proteinase inhibitor (Sigma) and centrifuged. The supernatants were collected and stored on ice. Measurement of 6-keto-PGF1α (the stable hydrolysis product of PGI2) and PGE2 were performed as instructed by the manufacturer.

[2] = system: 6-keto-PGF1α (the stable metabolite of PGI2); assay: Myocardial 6-keto-PGF1α levels (ELISA) in treated rats; assay type: in vivo, Sprague-Dawley rats; conditions: for effect on pioglitazone+atorvastatin increase of myocardial 6-keto-PGF1α: pioglitazone+atorvastatin pretreated rats
Procedure: as §1, §2

[3] = system: 15-epi-LPXA4; assay: Myocardial 15-epi-LPXA4 levels (ELISA) in treated rats; assay type: in vivo, Sprague-Dawley rats; conditions: for effect on pioglitazone+atorvastatin induction of myocardial 15-epi-LPXA4: pioglitazone+atorvastatin pretreated rats; for effect on myocardial 15-epi-LPXA4 levels: 8 h before harvest
Procedure: as §1, §2

[4] = system: PGE2; assay: Myocardial PGE2 levels (ELISA) in treated rats; assay type: in vivo, Sprague-Dawley rats; conditions: for effect on pioglitazone+atorvastatin increase of myocardial PGE2: pioglitazone+atorvastatin pretreated rats; for myocardial PGE2 levels: mean ±SEM
Procedure: as §1, §2

[5] = system: COX2; conditions: intravenous 1400 W, same dose as herein; 3-day pretreatment with atorvastatin 10 mg/kg/d; cited from earlier work
[6] = system: 15-epi-LXA4; conditions: normal human volunteers, cited from earlier work
[7] = Infarct size after 30 minute coronary artery occlusion; assay type: in vivo; conditions: aspirin 20 mg/kg i.v. at end of 30 minute coronary artery occlusion; 3-day atorvastatin pretreatment
[8] = system: 15-epi-LPXA4; conditions: cited from earlier work; for effect on pioglitazone+atorvastatin effect on myocardial 15-epi-LPXA4 levels: rats treated with pioglitazone+atorvastatin
[9] = system: COX2; assay: Biotin switch assay and COX2 immunoblot of myocardial samples; assay type: in vivo, rats; conditions: compared with the pioglitazone+atorvastatin group
Procedure: S-nitrosylation of COX2 was determined by the biotin switch method as previously described (Atar et al., 2006). Briefly, myocardial samples from the left ventricular wall of rats treated with lipopolysaccharide (group 4) and pioglitazone+atorvastain (group 8) were homogenized in HEN buffer (25 mM HEPES (pH 7.7)-0.1 mM EDTA-0.01 mM necuproine). The supernatant containing membrane fragments and the cytosolic protein were recovered. The samples were incubated for 30 mins at 4° C. with blocking solution containing HEN buffer, 0.1% SDS and 20 mM N-ethylmaleimide (NEM) to block free thiols.
Lysates were centrifuged at 16,000×g for 10 min at 4° C. Cold acetone was added to precipitate the proteins. The pellets were resuspended in HEN buffer with 1% SDS, with 20 mM sodium ascorbate added to decompose the SNO bonds. The resulting free thiols in the sample were reacted with 0.05 mM biotinylating agent, biocytin (MPB) for 30 mins at room temperature. The excess MPB was removed by additional protein precipitation in cold acetone. COX2 was immunoprecipitated with anti-COX2 polyclonal antibody. […] The biotinylated COX2 protein was detected with horseradish peroxidase-linked streptavidin. […] The signal densities of the biotinylated COX2 and total COX2 were quantified by an image-scanning densitometer and the ratio of the densities was calculated for each animal.

CC(=N)NCc1cccc(CN)c1 [1400 W]
effect on pioglitazone+atorvastatin effect on myocardial lipoxin A4 ([1]; 1400 W alone): not attenuated
effect on pioglitazone+atorvastatin increase of myocardial 6-keto-PGF1α ([2]; 1400 W): attenuated
effect on pioglitazone+atorvastatin induction of myocardial 15-epi-LPXA4 ([3]; 1400 W 1 mg/kg i.v. alone): partially blocked
effect on pioglitazone+atorvastatin increase of myocardial PGE2 ([4]; 1400 W): completely blocked
effect on augmentation of COX2 activity by atorvastatin [5]: blocked

CC(=O)Oc1ccccc1C(=O)O [Aspirin]
effect on LPS effect on myocardial lipoxin A4 ([1]; LPS + aspirin 10 mg/kg): did not alter
effect on LPS effect on myocardial lipoxin A4 ([1]; LPS + aspirin 50 mg/kg): did not alter
effect on LPS effect on myocardial lipoxin A4 ([1]; LPS + aspirin 200 mg/kg, p<0.001 versus each of the other groups): augmented
effect on myocardial lipoxin A4 ([1]; aspirin alone, 10 mg/kg): did not affect
effect on myocardial lipoxin A4 ([1]; aspirin alone, 50 mg/kg): did not affect
effect on pioglitazone+atorvastatin effect on myocardial lipoxin A4 ([1]; aspirin alone): not attenuated
myocardial 6-keto-PGF1α levels ([2]; LPS + aspirin 10 mg/kg, p<0.001 versus LPS alone, mean ±SEM): 76.70 ± 0.25 pg/mg
myocardial 6-keto-PGF1α levels ([2]; LPS + aspirin 50 mg/kg, p<0.001 versus LPS alone, mean ±SEM): 27.66 ± 0.23 pg/mg
myocardial 6-keto-PGF1α levels ([2]; LPS + aspirin 200 mg/kg, p<0.001 versus LPS alone, mean ±SEM): 25.39 ± 0.22 pg/mg
myocardial 6-keto-PGF1α levels ([2]; aspirin alone 10 mg/kg, p=0.48 versus control): 22.35 pg/mg
myocardial 6-keto-PGF1α levels ([2]; aspirin alone 50 mg/kg, p=0.001 versus control, mean ±SEM): 20.97 ± 0.51 pg/mg
effect on pioglitazone+atorvastatin increase of myocardial 6-keto-PGF1α ([2]; aspirin 10 mg/kg): attenuated
effect on pioglitazone+atorvastatin increase of myocardial 6-keto-PGF1α ([2]; aspirin 50 mg/kg): attenuated
effect on myocardial 15-epi-LPXA4 levels ([3]; aspirin alone, oral 10 mg/kg): no effect
effect on myocardial 15-epi-LPXA4 levels ([3]; aspirin alone, oral 50 mg/kg): no effect
effect on LPS induction of myocardial 15-epi-LPXA4 ([3]; i.v. LPS + oral aspirin 10 mg/kg, p=0.08 versus LPS alone): did not significantly alter
effect on LPS induction of myocardial 15-epi-LPXA4 ([3]; i.v. LPS + oral aspirin 50 mg/kg, p<0.001 versus LPS alone): augmented
effect on LPS induction of myocardial 15-epi-LPXA4 ([3]; i.v. LPS + oral aspirin 200 mg/kg, p<0.001 versus LPS alone): augmented
effect on pioglitazone+atorvastatin induction of myocardial 15-epi-LPXA4 ([3]; aspirin 10 mg/kg): attenuated
effect on pioglitazone+atorvastatin induction of myocardial 15-epi-LPXA4 ([3]; aspirin 50 mg/kg): completely blocked
effect on 15-epi-LXA4 ([6]; 650 mg/d): did not increase
blood levels of 15ELX at 81 mg/d compared with 325 mg/d [6]: greater
effect on infarct size limiting effect of atorvastatin [7]: completely abrogated
myocardial PGE2 levels ([4]; LPS + aspirin 10 mg/kg, p<0.001 versus LPS alone): 48.70 ± 3.02 pg/mg
myocardial PGE2 levels ([4]; LPS + aspirin 50 mg/kg, p<0.001 versus LPS alone): 41.68 ± 0.24 pg/mg
myocardial PGE2 levels ([4]; LPS + aspirin 200 mg/kg, p<0.001 versus LPS alone): 33.72 ± 0.46 pg/mg
myocardial PGE2 levels ([4]; aspirin alone 10 mg/kg, not significant versus control): 34.48 ± 0.21 pg/mg
myocardial PGE2 levels ([4]; aspirin alone 50 mg/kg, not significant versus control): 33.68 ± 0.24 pg/mg
effect on pioglitazone+atorvastatin increase of myocardial PGE2 ([4]; aspirin 10 mg/kg): attenuated
effect on pioglitazone+atorvastatin increase of myocardial PGE2 ([4]; aspirin 50 mg/kg): completely blocked

CC(C)c1c(C(=O)Nc2ccccc2)c(-c2ccccc2)c(-c2ccc(F)cc2)n1CC[C@@H](O)C[C@@H](O)CC(=O)O [atorvastatin]
effect on myocardial 15-epi-LPXA4 levels ([8]; 3 days oral 5 and 10 mg/kg/d, but not 2 mg/kg/d, each drug alone): increased

Cc1onc(-c2ccccc2)c1-c1ccc(S(N)(=O)=O)cc1 [valdecoxib]
effect on pioglitazone+atorvastatin effect on myocardial 15-epi-LPXA4 levels [8]: blocked

CC(c1cc2ccccc2s1)N(O)C(N)=O (stereo not shown) [zileuton]
effect on pioglitazone+atorvastatin effect on myocardial 15-epi-LPXA4 levels [8]: blocked

lipopolysaccharide [LPS]
effect on myocardial lipoxin A4 levels ([1]; LPS alone): small increase
myocardial 6-keto-PGF1α levels ([2]; LPS alone, p<0.001 versus control, mean ±SEM): 80.56 ± 0.21 pg/mg
total COX2 immunoblot signal intensity [9]: stronger
effect on myocardial 15-epi-LPXA4 levels ([3]; LPS 10 mg/kg i.v. alone): increased
myocardial PGE2 levels ([4]; LPS alone, p<0.001 versus control): 70.31±0.26
